Reference: PMC5679667 (PLoS ONE, 2017)

Molecular target: T1, ecAT3.10 (extracellular ATeam3.10) (Bacillus sp. PS3, UniProt P07678)
T1 construct: gene atpC; ATeam3.10 (epsilon subunit between CFP and YFP) with N-terminal IgK leader and C-terminal PDGFR transmembrane anchor; on surface of Neuro2A cells
Assay: live-cell FRET/CFP ratio imaging
Format: cell-based
Conditions: Neuro2A cells, continuous perfusion, pH 7.3, room temperature; printed error probably a misprint

T1 sequence (P07678 whole entry): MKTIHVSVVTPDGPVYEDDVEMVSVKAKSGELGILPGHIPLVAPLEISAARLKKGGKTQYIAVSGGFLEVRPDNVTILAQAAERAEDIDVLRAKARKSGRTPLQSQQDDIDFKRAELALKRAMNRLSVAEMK

Nc1ncnc2c1ncn2[C@@H]1O[C@H](COP(=O)(O)OP(=O)(O)O)[C@@H](O)[C@H]1O [ADP]
fold increase in ratio signal at 100 μM: 1.026 ± 1.005
